Laboratory results published in PubChem BioAssay (NCI).
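Interpolation was linear, between the two tested concentrations surrounding the appropriate level; five concentrations were tested over 48 hours in 96-well plates. GI50 = concentration required for 50% inhibition of growth. Definition used: TGI = concentration required for complete inhibition of growth.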

Tests used:
Test in all cases: NCI-60 cell line screen, 48 h
LXFL 529 NSCLC = system: LXFL 529 NSCLC
SNB-78 CNS = system: SNB-78 CNS
HCT-15 colon = system: HCT-15 colon
SK-OV-3 ovarian = system: SK-OV-3 ovarian
SF-539 CNS = system: SF-539 CNS
UACC-62 melanoma = system: UACC-62 melanoma
CAKI-1 renal = system: CAKI-1 renal
NCI-H522 lung = system: NCI-H522 lung
RXF 393 renal = system: RXF 393 renal
SR leukemia = system: SR leukemia

| Compound | TGI (LXFL 529 NSCLC) | TGI (SNB-78 CNS) | TGI (HCT-15 colon) | TGI (SK-OV-3 ovarian) | TGI (SF-539 CNS) | TGI (UACC-62 melanoma) | TGI (CAKI-1 renal) | TGI (NCI-H522 lung) | TGI (RXF 393 renal) | TGI (SR leukemia) | GI50 (HCT-15 colon) | GI50 (SK-OV-3 ovarian) | GI50 (SR leukemia) | GI50 (SF-539 CNS) | GI50 (UACC-62 melanoma) | GI50 (CAKI-1 renal) | GI50 (NCI-H522 lung) | GI50 (RXF 393 renal) |
| --- | --- | --- | --- | --- | --- | --- | --- | --- | --- | --- | --- | --- | --- | --- | --- | --- | --- | --- |
| C[N+](C)(C)CC(=O)N/N=C(/C=C/c1ccccc1)CC1OC(=O)c2ccccc21 (stereo not given) | > 100 µM | > 100 µM | > 100 µM | > 100 µM | > 100 µM | > 100 µM | > 100 µM | > 100 µM | > 100 µM | – | – | – | – | – | – | – | – | – |
| CCc1ccc(Cc2ccc(CC)c(NC(=O)C(=O)Cc3nc4ccccc4nc3C)c2CC)c(CC)c1NC(=O)C(=O)Cc1nc2ccccc2nc1C | > 100 µM | > 100 µM | > 100 µM | > 100 µM | > 100 µM | > 100 µM | > 100 µM | > 100 µM | > 100 µM | – | – | – | – | – | – | – | – | – |
| CCCCNC(=S)Nn1c(-c2ccccc2)nc2ccccc2c1=O | > 100 µM | – | > 100 µM | > 100 µM | > 100 µM | > 100 µM | > 100 µM | > 100 µM | > 100 µM | – | – | – | – | – | – | – | – | – |
| CCN(CC)CCN(C)CC(C)(C)C(=O)/C=C/c1ccccc1 | 24.7 µM | – | 28.4 µM | 26.6 µM | 19 µM | 26.9 µM | 28.7 µM | 21.4 µM | – | 45.5 µM | – | – | – | – | – | – | – | – |
| COC1CCC(=C2C(=O)OC(C)(C)OC2=O)N1 (stereo not given) | > 100 µM | – | > 100 µM | > 100 µM | > 100 µM | > 100 µM | > 100 µM | > 100 µM | > 100 µM | – | – | – | – | – | – | – | – | – |
| C=CCCc1cc(OC)ccc1CN(C)C(C)(C)CO | – | > 100 µM | > 100 µM | – | > 100 µM | > 100 µM | > 100 µM | – | > 100 µM | > 100 µM | – | – | – | – | – | – | – | – |
| O=c1ccc2nc(-c3ccccc3)nn(-c3ccccc3)c-2c1 | – | – | 2.43 µM | 26.6 µM | 3.76 µM | 4.13 µM | 2.89 µM | 0.918 µM | 3.06 µM | 1.52 µM | 0.775 µM | 13.3 µM | 0.309 µM | 1.92 µM | 1.84 µM | 1.5 µM | 0.462 µM | 1.67 µM |
| COc1ccc(C(=O)/C=C/c2ccc(Cl)cc2)cc1S(N)(=O)=O | – | – | 10.6 µM | 18.6 µM | 3.3 µM | 17.5 µM | 10.6 µM | 4.51 µM | 3.97 µM | 6.86 µM | 2.14 µM | 5.96 µM | 0.865 µM | 1.6 µM | 4.88 µM | 2.72 µM | 1.93 µM | 1.98 µM |
| COc1ccc(C(=O)c2cc3c(N)c(C(=O)Nc4cccc(Cl)c4)sc3nc2C)cc1 | – | – | > 33.3 µM | > 33.3 µM | 3.2 µM | > 33.3 µM | > 33.3 µM | > 33.3 µM | 2.08 µM | > 33.3 µM | 1.32 µM | 1.58 µM | 1.15 µM | 0.995 µM | 1.12 µM | 1.28 µM | 1.1 µM | 0.655 µM |
| COc1ccc(C(=O)CC2(O)C(=O)Nc3c(Cl)ccc(Cl)c32)cc1 (stereo not given) | – | – | 86.4 µM | > 100 µM | 6.96 µM | > 100 µM | > 100 µM | 3.58 µM | > 100 µM | 56.1 µM | 0.885 µM | 2.89 µM | 0.413 µM | 1.64 µM | 0.791 µM | 1.75 µM | 0.406 µM | 3.07 µM |
| Cc1cc(Cl)n2c(nc3ccccc32)c1C#N | – | – | 4.12 µM | 15.6 µM | 7.86 µM | 3.66 µM | 1.41 µM | 1.22 µM | 2.66 µM | 24.2 µM | 0.53 µM | 3.81 µM | 0.348 µM | 0.576 µM | 1.14 µM | 0.282 µM | 0.235 µM | 0.854 µM |
| Cc1ccc(CCC(=O)Nc2ncc(Cc3cc(Cl)ccc3Cl)s2)o1 | – | – | > 100 µM | > 100 µM | 0.712 µM | > 100 µM | 7.36 µM | 12.9 µM | 1.75 µM | 18.9 µM | 0.0546 µM | 0.399 µM | 0.0557 µM | 0.218 µM | 0.24 µM | 0.114 µM | 0.229 µM | 0.256 µM |
| CC(=O)O[C@@H]1C=CC(=O)C2(CC(=O)O[C@@H]2/C=C(\C)CCC=C(C)C)C1 (stereo not given in full) | – | – | 1.28 µM | 4.49 µM | 1.44 µM | 2.36 µM | 2.3 µM | – | 0.962 µM | 31.6 µM | 0.285 µM | 2 µM | 0.0339 µM | 0.591 µM | 1.12 µM | 0.744 µM | 0.988 µM | 0.185 µM |
| CN(C)C1(C#N)CCC2(CC1)OCCO2 | – | > 100 µM | > 100 µM | > 100 µM | > 100 µM | > 100 µM | > 100 µM | > 100 µM | > 100 µM | > 100 µM | – | – | – | – | – | – | – | – |
| [O-][n+]1onc2c3nn(-c4ccccc4)nc3ccc21 | – | – | > 100 µM | > 100 µM | > 100 µM | > 100 µM | > 100 µM | > 100 µM | > 100 µM | > 75.1 µM | – | – | – | – | – | – | – | – |
| O=C(Cn1ccnc1[N+](=O)[O-])NCCO | – | – | > 100 µM | > 100 µM | > 100 µM | > 100 µM | > 100 µM | > 100 µM | > 100 µM | > 100 µM | – | – | – | – | – | – | – | – |
| CC/C=C/[C@@H]1C=C[C@@H]2CCC[C@H]2[C@@H]1CC[C@H](O)[C@H](C)N | – | – | 2.87 µM | 4.15 µM | 3.03 µM | 2.96 µM | 20.5 µM | 3.99 µM | 4.17 µM | 3 µM | 1.54 µM | 1.69 µM | 1.39 µM | 1.67 µM | 1.61 µM | 3.73 µM | 1.82 µM | 1.94 µM |
| FC(F)(F)c1ccc2nc(-c3nc(-c4ccccc4)n4ccccc34)[nH]c2c1 | – | – | 22 µM | 3.53 µM | 3.38 µM | 17.9 µM | 27.1 µM | 9.88 µM | 6.98 µM | > 100 µM | 3.5 µM | 1.86 µM | 3.65 µM | 1.69 µM | 3.19 µM | 5.07 µM | 2.99 µM | 2.64 µM |
| CC(C)(O)Cn1c(=O)c(Oc2ccc(F)cc2F)cc2cnc(NC3CCOCC3)nc21 | – | – | > 25 µM | > 25 µM | > 25 µM | > 25 µM | > 25 µM | > 25 µM | > 25 µM | > 25 µM | > 25 µM | > 25 µM | > 25 µM | > 25 µM | > 25 µM | > 25 µM | > 25 µM | > 25 µM |
| C=C1C(=O)OC2C1C(OC(=O)/C(=C/C)COC(C)=O)CC1(CO1)C1C(OC(=O)/C(=C/C)CO)C=C(C)C21 (stereo not given) | 1.66 µM | 6.41 µM | 4.91 µM | 31.3 µM | 19.5 µM | 3.01 µM | 2.13 µM | – | 2.31 µM | – | – | – | – | – | – | – | – | – |
| COc1cc(-c2cc(-c3ccc(N(C)C)cc3)nc(N3CCC(O)CC3)c2C#N)cc(OC)c1OC | – | – | 1.86 µM | 57.7 µM | 3.24 µM | 0.741 µM | 0.7 µM | 1.32 µM | 3.27 µM | 2.94 µM | 0.306 µM | 2.11 µM | 0.432 µM | 0.82 µM | 0.277 µM | 0.0224 µM | 0.338 µM | 0.177 µM |
| CCc1cc(C(N)=O)ccc1-n1nc(C(C)C)c2c(-n3cnc(-c4cnn(C)c4)c3)ccnc21 | – | – | > 100 µM | > 100 µM | > 100 µM | > 35.4 µM | > 100 µM | > 100 µM | > 100 µM | > 100 µM | 2.9 µM | 0.492 µM | 0.546 µM | 3.08 µM | 1.18 µM | 5.61 µM | 1.47 µM | 3.09 µM |
| COc1ccc(/C=C2/SC(=Nc3c(C)nn(-c4ccccc4)c3N)NC2=O)cc1 | – | – | 30.7 µM | 25.3 µM | 10.8 µM | 18.3 µM | 15.7 µM | 16.4 µM | 47.8 µM | 18 µM | 3.64 µM | 3.65 µM | 3.63 µM | 2.38 µM | 3.78 µM | 2.82 µM | 3.1 µM | 14.5 µM |
| CCCCN(CCCC)C(=Nc1ccccc1)N(CCCC)CCCC | 18.5 µM | 41 µM | – | 22.6 µM | 24.6 µM | – | – | 7.41 µM | 25.6 µM | – | – | – | – | – | – | – | – | – |
| N#Cc1c([N+](=O)[O-])cc(C(F)(F)F)cc1[N+](=O)[O-] | 4.42 µM | 4.15 µM | 24.9 µM | 33.2 µM | 11 µM | 12.2 µM | 8.94 µM | 1.24 µM | 6.62 µM | – | – | – | – | – | – | – | – | – |
| CCN1CCC(C(=O)Nc2n[nH]c3nnc(-c4cccc(F)c4F)cc23)CC1 | – | – | > 25 µM | 23.4 µM | 18.3 µM | > 25 µM | > 25 µM | > 17 µM | 5.78 µM | > 25 µM | > 25 µM | 2.33 µM | 9.61 µM | 3.98 µM | 10.2 µM | > 25 µM | 6.68 µM | 0.403 µM |
| CCc1nc(N)nc(N)c1-c1ccc(Cl)cc1 | – | – | > 100 µM | > 100 µM | > 100 µM | > 100 µM | > 100 µM | > 100 µM | > 100 µM | > 100 µM | 4.74 µM | 84.9 µM | 18.7 µM | 9.43 µM | 3.93 µM | 6.34 µM | – | 22.6 µM |
